Test results as given in patent EP1561465A2, “Methods of use of fluoroquinolone compounds against bacteria” (LG Life Sciences, Ltd., priority 1999, dated 2001).
In brackets after ≈: the same amount, converted by molar mass. Read-outs that look alike come from different tables or passages of the source.

What was measured:
Type in all cases: cell-based
Streptococcus pneumoniae [1] = experiment: MIC by agar dilution (NCCLS), 411 isolates Buenos Aires 1998-99; conditions: for MIC / MIC90: Streptococcus pneumoniae; for MIC: Ciprofloxacin-resistant S. pneumoniae, read-out: MIC
Streptococcus pneumoniae [2] = experiment: MIC by broth microdilution (NCCLS), dried MicroScan panels, clinical isolates 1998-1999; conditions: for MIC90: Streptococcus pneumoniae
[3] = system: Staphylococcus epidermidis; experiment: MIC by NCCLS broth microdilution, 1100 Japanese clinical isolates 1997-1998; conditions: for MIC50 / MIC90: Staphylococcus epidermidis
Providencia rettgeri = experiment: as above
Proteus vulgaris = experiment: as above
Streptococcus pneumoniae [4] = experiment: as above; conditions: for MIC: Streptococcus pneumoniae quinolone resistant
Proteus mirabilis = experiment: as above; conditions: for MIC50: read-out: MIC50
Salmonella spp. = experiment: as above; conditions: Salmonella spp. (n=29)
P. aeruginosa = experiment: MIC by two-fold serial agar dilution, quinolone-resistant strains; conditions: Pseudomonas aeruginosa
Streptococcus pneumoniae [5] = experiment: MIC by E-test (broth microdilution for gemifloxacin), 107 pneumococcal carrier isolates, Athens 1998; conditions: for MIC Range: in µg/mL (unit assumed); for MIC50 / MIC90: Streptococcus pneumoniae; for MIC90: read-out: MIC90
Description: Susceptibility testing was performed by agar dilution or epsilometer method (E-test), as recommended by the NCCLS. […] The susceptibility profiles of the strains were assessed using the Epsilometer method (E-test). The isolates were subdivided into two groups according to their penicillin susceptibility patterns (penicillin-susceptible and penicillin-intermediate.

Pseudomonas aeruginosa = experiment: MIC by agar dilution (NCCLS), 322 nosocomial Gram negative isolates, Athens 1998; conditions: n = 57 isolates
[6] = Streptococcus pneumoniae (n = 90)
[7] = S. pneumoniae, Penicillin intermediate (n = 17), read-out: MIC90
[8] = S. pneumoniae, Penicillin susceptible (n = 69), read-out: MIC90
[9] = Streptococcus pneumoniae (n = 90), read-out: MIC90
[10] = Streptococcus pneumoniae (302 isolates)
[11] = Staphylococcus epidermidis oxacillin resistant (n=43)
[12] = Staphylococcus epidermidis oxacillin susceptible (n=35)
[13] = Streptococcus pneumoniae amoxicillin resistant (n=40)
[14] = Streptococcus pneumoniae amoxicillin susceptible (n=35)
[15] = Streptococcus pneumoniae erythromycin resistant (n=34)
[16] = Streptococcus pneumoniae erythromycin susceptible (n=11)
[17] = Streptococcus pneumoniae, Streptococcus pneumoniae amoxicillin resistant (n=40), read-out: MIC50
[18] = Streptococcus pneumoniae, Streptococcus pneumoniae amoxicillin susceptible (n=35), read-out: MIC50
[19] = Streptococcus pneumoniae, Streptococcus pneumoniae amoxicillin susceptible (n=35), read-out: MIC90
[20] = Streptococcus pneumoniae, Streptococcus pneumoniae erythromycin resistant (n=34), read-out: MIC50
[21] = Streptococcus pneumoniae, strain TMS1
[22] = Streptococcus pneumoniae, strain TMS2
[23] = Penicillin-intermediate S. pneumoniae (n = 24), E-test
[24] = Penicillin-susceptible S. pneumoniae (n = 107), E-test

`C[C@H]1COc2c(N3CCN(C)CC3)c(F)cc3c(=O)c(C(=O)O)cn1c23` [Levofloxacin, levofloxacin] was tested, and the “MIC Range” value (Streptococcus pneumoniae [1]; [6]) was 0.25 to 4 µg/mL, the MIC (Streptococcus pneumoniae [1]; Strain 1) was 1 µg/mL (≈ 2.77 µM) and the MIC (Streptococcus pneumoniae [1]; Strain 2) was 1 µg/mL (≈ 2.77 µM). It also gave an MIC (Streptococcus pneumoniae [1]; Strain 3) of 4 µg/mL (≈ 11.1 µM), an MIC (Streptococcus pneumoniae [1]; Strain 4) of 2 µg/mL (≈ 5.53 µM) and an MIC90 (Streptococcus pneumoniae [1]; [7]) of 1 µg/mL (≈ 2.77 µM). It also gave an MIC90 (Streptococcus pneumoniae [1]; S. pneumoniae, Penicillin resistant (n = 4), read-out: MIC90) of 1 µg/mL (≈ 2.77 µM), an MIC90 (Streptococcus pneumoniae [1]; [8]) of 1 µg/mL (≈ 2.77 µM) and an MIC90 (Streptococcus pneumoniae [1]; [9]) of 1 µg/mL (≈ 2.77 µM). The MIC50 (Streptococcus pneumoniae [2]; [10]) was 1 µg/mL (≈ 2.77 µM), the “MIC Range” value (Streptococcus pneumoniae [2]; [10]) was ≤0.015 to 2 µg/mL and the MIC90 (Streptococcus pneumoniae [2]; Erythromycin-resistant (86)) was 1 µg/mL (≈ 2.77 µM). For the same compound, the MIC90 (Streptococcus pneumoniae [2]; Erythromycin-sensitive (216)) was 2 µg/mL (≈ 5.53 µM), the MIC90 (Streptococcus pneumoniae [2]; Penicillin-intermediate (124)) was 1 µg/mL (≈ 2.77 µM) and the MIC90 (Streptococcus pneumoniae [2]; Penicillin-resistant (80)) was 1 µg/mL (≈ 2.77 µM). The MIC90 (Streptococcus pneumoniae [2]; Penicillin-sensitive (98)) was 1 µg/mL (≈ 2.77 µM), the MIC90 (Streptococcus pneumoniae [2]; [10]) was 1 µg/mL (≈ 2.77 µM) and the “MIC Range” value [3, 11] was 0.25 to 16 µg/mL. For the same compound, the “MIC Range” value [3, 12] was 0.063 to 8 µg/mL, the MIC50 [3, 11] was 4 µg/mL (≈ 11.1 µM) and the MIC90 [3, 11] was 8 µg/mL (≈ 22.1 µM). For the same compound, the MIC50 [3, 12] was 0.25 µg/mL (≈ 0.692 µM), the MIC90 [3, 12] was 4 µg/mL (≈ 11.1 µM) and the MIC50 (Providencia rettgeri; Providencia rettgeri) was 0.125 µg/mL (≈ 0.346 µM). For the same compound, the MIC90 (Providencia rettgeri; Providencia rettgeri (n=12)) was 8 µg/mL (≈ 22.1 µM), the “MIC Range” value (Providencia rettgeri; Providencia rettgeri (n=12)) was 0.125 to 8 µg/mL and the MIC90 (Proteus vulgaris; Proteus vulgaris) was 0.125 µg/mL (≈ 0.346 µM). The “MIC Range” value (Proteus vulgaris; Proteus vulgaris (n=25)) was 0.032 to 1 µg/mL, the MIC50 (Proteus vulgaris; Proteus vulgaris (n=25), read-out: MIC50) was 0.063 µg/mL (≈ 0.174 µM) and the “MIC Range” value (Streptococcus pneumoniae [4]; [13]) was 0.5 to 8 µg/mL. For the same compound, the “MIC Range” value (Streptococcus pneumoniae [4]; [14]) was 0.063 to 8 µg/mL, the “MIC Range” value (Streptococcus pneumoniae [4]; [15]) was 0.063 to 8 µg/mL and the “MIC Range” value (Streptococcus pneumoniae [4]; [16]) was 0.5 to 1 µg/mL. It also gave an MIC50 (Streptococcus pneumoniae [4]; [17]) of 1 µg/mL (≈ 2.77 µM), an MIC90 (Streptococcus pneumoniae [4]; Streptococcus pneumoniae, Streptococcus pneumoniae amoxicillin resistant (n=40), read-out: MIC90) of 1 µg/mL (≈ 2.77 µM) and an MIC50 (Streptococcus pneumoniae [4]; [18]) of 1 µg/mL (≈ 2.77 µM). For the same compound, the MIC90 (Streptococcus pneumoniae [4]; [19]) was 1 µg/mL (≈ 2.77 µM), the MIC50 (Streptococcus pneumoniae [4]; [20]) was 1 µg/mL (≈ 2.77 µM) and the MIC90 (Streptococcus pneumoniae [4]; Streptococcus pneumoniae, Streptococcus pneumoniae erythromycin resistant (n=34), read-out: MIC90) was 1 µg/mL (≈ 2.77 µM). For the same compound, the MIC50 (Streptococcus pneumoniae [4]; Streptococcus pneumoniae, Streptococcus pneumoniae erythromycin susceptible (n=11), read-out: MIC50) was 1 µg/mL (≈ 2.77 µM), the MIC90 (Streptococcus pneumoniae [4]; Streptococcus pneumoniae, Streptococcus pneumoniae erythromycin susceptible (n=11), read-out: MIC90) was 1 µg/mL (≈ 2.77 µM) and the MIC (Streptococcus pneumoniae [4]; [21]) was 1 µg/mL (≈ 2.77 µM). The MIC (Streptococcus pneumoniae [4]; [22]) was 16 µg/mL (≈ 44.3 µM), the MIC90 (Proteus mirabilis; Proteus mirabilis) was 0.125 µg/mL (≈ 0.346 µM) and the “MIC Range” value (Proteus mirabilis; Proteus mirabilis (n=30)) was 0.032 to 2 µg/mL. The MIC50 (Proteus mirabilis; Proteus mirabilis (n=30)) was 0.063 µg/mL (≈ 0.174 µM), the MIC50 (Salmonella spp.) was 0.063 µg/mL (≈ 0.174 µM) and the MIC90 (Salmonella spp.) was 0.063 µg/mL (≈ 0.174 µM). The “MIC Range” value (Salmonella spp.) was 0.032 to 0.063 µg/mL and the MIC (P. aeruginosa) was 2 µg/mL (≈ 5.53 µM).

With `N[C@@H]1[C@H]2CN(c3nc4c(cc3F)c(=O)c(C(=O)O)cn4-c3ccc(F)cc3F)C[C@@H]12` [Trovafloxacin, trovafloxacin] the MIC90 (Streptococcus pneumoniae [1]) was 0.125 µg/mL (≈ 0.3 µM), the “MIC Range” value (Streptococcus pneumoniae [1]; [6]) was 0.016 to 1 µg/mL and the MIC (Streptococcus pneumoniae [1]; Strain 1) was 0.25 µg/mL (≈ 0.6 µM). The MIC (Streptococcus pneumoniae [1]; Strain 2) was 0.025 µg/mL (≈ 0.06 µM), the MIC (Streptococcus pneumoniae [1]; Strain 3) was 1 µg/mL (≈ 2.4 µM) and the MIC (Streptococcus pneumoniae [1]; Strain 4) was 1 µg/mL (≈ 2.4 µM). It also gave an MIC90 (Streptococcus pneumoniae [1]; [7]) of 0.25 µg/mL (≈ 0.6 µM), an MIC90 (Streptococcus pneumoniae [1]; [8]) of 0.25 µg/mL (≈ 0.6 µM) and an MIC90 (Streptococcus pneumoniae [1]; [9]) of 0.25 µg/mL (≈ 0.6 µM). For the same compound, the MIC50 (Streptococcus pneumoniae [2]; [10]) was 0.12 µg/mL (≈ 0.288 µM), the “MIC Range” value (Streptococcus pneumoniae [2]; [10]) was ≤0.015 to 1 µg/mL and the MIC90 (Streptococcus pneumoniae [2]; Erythromycin-resistant (86)) was 0.25 µg/mL (≈ 0.6 µM). For the same compound, the MIC90 (Streptococcus pneumoniae [2]; Erythromycin-sensitive (216)) was 0.25 µg/mL (≈ 0.6 µM), the MIC90 (Streptococcus pneumoniae [2]; Penicillin-intermediate (124)) was 0.25 µg/mL (≈ 0.6 µM) and the MIC90 (Streptococcus pneumoniae [2]; Penicillin-resistant (80)) was 0.25 µg/mL (≈ 0.6 µM). For the same compound, the MIC90 (Streptococcus pneumoniae [2]; Penicillin-sensitive (98)) was 0.25 µg/mL (≈ 0.6 µM), the MIC90 (Streptococcus pneumoniae [2]; [10]) was 0.25 µg/mL (≈ 0.6 µM) and the MIC Range (Streptococcus pneumoniae [5]; [23]) was 0.003-1. For the same compound, the MIC Range (Streptococcus pneumoniae [5]; [24]) was 0.008-1, the MIC50 (Streptococcus pneumoniae [5]) was 0.125 µg/mL (≈ 0.3 µM) and the MIC90 (Streptococcus pneumoniae [5]; [23]) was 0.38 µg/mL (≈ 0.913 µM). For the same compound, the MIC50 (Streptococcus pneumoniae [5]; Penicillin-susceptible S. pneumoniae (n = 107), E-test, read-out: MIC50) was 0.094 µg/mL (≈ 0.226 µM), the MIC90 (Streptococcus pneumoniae [5]; [24]) was 0.19 µg/mL (≈ 0.456 µM) and the “MIC Range” value [3, 11] was 0.032 to 8 µg/mL. The “MIC Range” value [3, 12] was ≤0.008 to 2 µg/mL, the MIC50 [3, 11] was 1 µg/mL (≈ 2.4 µM) and the MIC90 [3, 11] was 2 µg/mL (≈ 4.8 µM). The MIC50 [3, 12] was 0.032 µg/mL (≈ 0.0769 µM), the MIC90 [3, 12] was 1 µg/mL (≈ 2.4 µM) and the MIC90 (Providencia rettgeri; Providencia rettgeri (n=12)) was 8 µg/mL (≈ 19.2 µM). For the same compound, the “MIC Range” value (Providencia rettgeri; Providencia rettgeri (n=12)) was 0.125 to 8 µg/mL, the MIC50 (Providencia rettgeri; Providencia rettgeri (n=12), read-out: MIC50) was 0.25 µg/mL (≈ 0.6 µM) and the MIC50 (Pseudomonas aeruginosa) was 2 µg/mL (≈ 4.8 µM). For the same compound, the MIC90 (Pseudomonas aeruginosa) was > 64 µg/mL, the MIC50 (Proteus vulgaris; Proteus vulgaris) was 0.125 µg/mL (≈ 0.3 µM) and the “MIC Range” value (Proteus vulgaris; Proteus vulgaris (n=25)) was 0.063 to 2 µg/mL. For the same compound, the MIC90 (Proteus vulgaris; Proteus vulgaris (n=25), read-out: MIC90) was 1 µg/mL (≈ 2.4 µM), the MIC50 (Streptococcus pneumoniae [4]; Streptococcus pneumoniae) was 0.125 µg/mL (≈ 0.3 µM) and the MIC90 (Streptococcus pneumoniae [4]; Streptococcus pneumoniae) was 0.125 µg/mL (≈ 0.3 µM). For the same compound, the “MIC Range” value (Streptococcus pneumoniae [4]; [13]) was 0.063 to 1 µg/mL, the “MIC Range” value (Streptococcus pneumoniae [4]; [14]) was 0.063 to 1 µg/mL and the MIC90 (Streptococcus pneumoniae [4]; [15]) was 0.125 µg/mL (≈ 0.3 µM). The “MIC Range” value (Streptococcus pneumoniae [4]; [15]) was 0.063 to 1 µg/mL, the MIC90 (Streptococcus pneumoniae [4]; [16]) was 0.125 µg/mL (≈ 0.3 µM) and the “MIC Range” value (Streptococcus pneumoniae [4]; [16]) was 0.063 to 0.125 µg/mL. For the same compound, the MIC50 (Streptococcus pneumoniae [4]; [17]) was 0.063 µg/mL (≈ 0.151 µM), the MIC50 (Streptococcus pneumoniae [4]; [18]) was 0.063 µg/mL (≈ 0.151 µM) and the MIC90 (Streptococcus pneumoniae [4]; [19]) was 0.25 µg/mL (≈ 0.6 µM). It also gave an MIC50 (Streptococcus pneumoniae [4]; [20]) of 0.063 µg/mL (≈ 0.151 µM), an MIC (Streptococcus pneumoniae [4]; [21]) of 0.25 µg/mL (≈ 0.6 µM) and an MIC (Streptococcus pneumoniae [4]; [22]) of 1 µg/mL (≈ 2.4 µM). For the same compound, the “MIC Range” value (Proteus mirabilis; Proteus mirabilis (n=30)) was 0.063 to 16 µg/mL, the MIC50 (Proteus mirabilis; Proteus mirabilis (n=30)) was 0.25 µg/mL (≈ 0.6 µM) and the MIC90 (Proteus mirabilis; Proteus mirabilis (n=30), read-out: MIC90) was 0.5 µg/mL (≈ 1.2 µM). For the same compound, the MIC50 (Salmonella spp.) was 0.032 µg/mL (≈ 0.0769 µM), the MIC90 (Salmonella spp.) was 0.063 µg/mL (≈ 0.151 µM) and the “MIC Range” value (Salmonella spp.) was 0.016 to 0.063 µg/mL. The MIC (P. aeruginosa) was 1 µg/mL (≈ 2.4 µM).
